The test system of series [1] is PBMC. Put plainly: Cytotoxicity against human PBMC at 1 to 100 uM after 48 hrs by flow cytometry. Type of series: cell-based. For orientation: Flow cytometry measures light scatter and fluorescence of single cells or particles in a stream.
The subject of series [2] is PBMC. Put plainly: Cytotoxicity against human PBMC at 1 to 100 uM after 48 hrs by propidium iodure labeling. Type of series: cell-based.
The subject of series [3] is PBMC. Put plainly: Antiinflammatory activity in human PBMC assessed as inhibition of LPS-induced IL-6 production at 1 to 100 uM after 48 hrs by ELISA. Type of series: functional, cell-based. For orientation: ELISA stands for enzyme-linked immunosorbent assay.
Series [4] deals with PBMC. Put plainly: Antiinflammatory activity in human PBMC assessed as inhibition of LPS-induced TNFalpha production at 1 to 100 uM after 48 hrs by ELISA. Type of series: functional, cell-based.
Series [5] deals with PBMC. Put plainly: Antiinflammatory activity in human PBMC assessed as inhibition of LPS-induced TNFalpha production at 100 uM after 48 hrs by ELISA. The series is classed as functional, cell-based.
The subject of series [6] is PBMC. Put plainly: Antiinflammatory activity in human PBMC assessed as inhibition of LPS-induced TNFalpha production at 1 to 10 uM after 48 hrs by ELISA. Type of series: functional, cell-based.
Series [7] concerns PBMC. Put plainly: Antiinflammatory activity in human PBMC assessed as inhibition of LPS-induced IL-6 production at 100 uM after 48 hrs by ELISA. The series is classed as functional, cell-based.
For series [8], the system named is PBMC. Put plainly: Antiinflammatory activity in human PBMC assessed as inhibition of LPS-induced IL-6 production at 1 to 10 uM after 48 hrs by ELISA. Type of series: functional, cell-based.
Series [9] has as its system PBMC. Put plainly: Antiinflammatory activity in human PBMC assessed as inhibition of LPS-induced TNFalpha production after 48 hrs by ELISA. The series is classed as functional, cell-based.

Here are results for 9 compounds from ChEMBL document CHEMBL1667775, “Design, synthesis and biological evaluation of new thalidomide analogues as TNF-α and IL-6 production inhibitors” (Bioorg Med Chem Lett, 2011).

Calls of active or inactive are those of the source. The calls are words filed in the database; no cut-off is given here.

Turning to `O=C1C2Cc3ccccc3N2C(=O)N1S(=O)(=O)c1ccc2ccccc2c1` (centres undefined), the Activity result in series [1] and in series [2] was “Non-toxic” in each case.

In the case of `O=C(Nc1cccc(S(=O)(=O)N2CCSCC2)c1)c1cc2cccnc2[nH]1`, the Activity result in series [1] and in series [2] was “Non-toxic” throughout. Further, the result in [3] and in [4] was inactive.

As to `Cc1ccc(S(=O)(=O)N2C(=O)c3cc4ccccc4n3C2=O)cc1`, the Activity entry in series [1] and in [2] was “Non-toxic” each time.

For the compound `O=C1c2cc3cccnc3n2C(=O)N1S(=O)(=O)c1ccccc1`, the Activity result in series [1] and in [2] was “Non-toxic” in each case. The result in series [3] was inactive. Also, the result in series [4] was Active.

`O=C(Nc1ccccc1)c1cc2cccnc2[nH]1`: the Activity entry in series [1] and in [2] was “Non-toxic” each time. In addition, the outcome in series [3] and in [4] was inactive.

For `CCOC(=O)c1ccc(S(=O)(=O)CN2C(=O)C3Cc4ccccc4CN3S2(=O)=O)cc1` (centres undefined), the Activity entry in [1] and in series [2] was “Non-toxic” throughout. Further, the outcome in series [5] and in series [7] was Active. The result in series [6] and in series [8] was inactive.

For the compound `O=C(Nc1cccc(S(=O)(=O)N2CCOCC2)c1)c1cc2cccnc2[nH]1`, the Activity entry in [1] and in series [2] was “Non-toxic” in each case. Moreover, the result in [3] and in [4] was inactive.

As to `O=C(Nc1ccccc1)c1cc2cccnc2n1S(=O)(=O)c1ccccc1`, the Activity result was “Non-toxic” in series [1], “Dose-dependent effect” in [9] and “Non-toxic” in [2]. The result in [3] was Active.

With `O=C(Nc1cccc(S(=O)(=O)N2CCN(c3ccccc3)CC2)c1)c1cc2cccnc2[nH]1`, the Activity result in [1] and in series [2] was “Non-toxic” throughout. In addition, the result in series [3] and in [4] was inactive.
